Test results reported in patent publication US20090209460A1, “COMPOSITIONS AND METHODS FOR TREATING OBESITY AND RELATED METABOLIC DISORDERS” (Amylin Pharmaceuticals, Inc., priority 2005, published 2009).
Read-outs that look alike come from different tables or passages of the source. Residues, ends and D or L forms follow the SMILES beside them.

What was measured:
[1] = test system: NIH/Swiss mice; assay: acute food intake assay, lean overnight-fasted NIH/Swiss mice, intraperitoneal injection; type: in vivo, mouse; settings: for Food Intake Inhibition: mouse assay, dose of 200 mg/kg, measured at 60 minutes; for FI (60′, 200): food intake, % change relative to control, 60 min
Experimental: The effect of NMX Peptides, FNX Peptides or NMX Receptor agonists on food intake when systemically administered was investigated using an acute food intake assay. This assay measured food consumption in lean subjects. Lean, group-housed, overnight-fasted NIH/Swiss mice. All in vivo tests were performed with peripheral injections of peptide. […] The dose-response data are presented herein. The protocol is described below. Female NIH/Swiss mice (8-24 weeks old) were group housed with a 12:12 hour light:dark cycle, with lights on at 0300. Water and a standard pelleted mouse chow diet are available ad libitum, except as noted. Animals are fasted starting at approximately 1530 hrs, 1 day prior to experiment. At time=0 min, all animals are given an intraperitoneal injection of vehicle or polypeptide in a volume of 200 uL/mouse and immediately given a pre-weighed amount (10-15 g) of the standard chow. Food is removed and weighed at 30, 60, and 120 minutes to determine the amount of food consumed. The effects of treatment on food intake are expressed as % change relative to control.

[2] = brush border membrane (BBM) stability assay; type: in vitro ADME, human; settings: brush border membrane extract (e.g. kidney)
Experimental: Some exemplary NMX Peptides and FNX Peptides were tested for stability in a brush border membrane (BBM) assay as described herein. To determine the enzymatic stability of peptide hormones peptides are incubated with a preparation of human brush border membranes extract (e.g., kidney), and the stability of the peptide is determined by measuring concentration of the intact peptide at specific intervals. The brush border membrane extract contains dipeptidyl peptidase IV (DPP-IV), neutral endopeptidases, peptidyl-dipeptidase A, carboxypeptidases and aminopeptidases. These are the primary enzymes that degrade peptides in vivo and are found in the kidneys, liver, lungs and pancreas. Resistance against these human proteases would increase peptide half-life. In the BBM assay test peptide was subjected to digestion over a period of five (5) hours with human brush border membrane extracts, e.g. kidney, at 37° C. At desired timepoints digestion was stopped by addition of quench solution, typically 50% ACN, 1% FA. After centrifugation to remove membrane debris, supernatant was subjected to mass spectrometry using a selected ion scan for the intact molecule of interest. Values are expressed as a percent of stable. A value of at least 80 or greater is regarded as an extremely stable molecule. A value of at least 70 or greater is a molecule with significant stability.

[3] = percent compound remaining after a 5 hour incubation, human brush border membrane assay, read-out: hBBM
[4] = percent of stable, human brush border membrane extracts, five hours, 37° C., read-out: BBM

CC(C)C[C@H](NC(=O)[C@H](CCCCN)NC(=O)[C@H](CCC(N)=O)NC(=O)[C@@H](NC(=O)[C@H](CCCCN)NC(=O)[C@H](CO)NC(=O)[C@H](Cc1ccc(O)cc1)NC(=O)[C@H](Cc1c[nH]cn1)NC(=O)[C@H](Cc1ccccc1)NC(=O)[C@H](CC(C)C)NC(=O)[C@@H](N)Cc1ccccc1)[C@@H](C)O)C(=O)NCC(=O)N[C@@H](CCCCN)C(=O)N[C@@H](CO)C(=O)N[C@@H](CC(N)=O)C(=O)N[C@@H](CCC(=O)O)C(=O)N[C@@H](CCC(=O)O)C(=O)N[C@@H](CC(C)C)C(=O)N[C@@H](CCC(N)=O)C(=O)N[C@@H](CO)C(=O)N1CCC[C@H]1C(=O)N[C@@H](CO)C(=O)N[C@@H](CCCNC(=N)N)C(=O)NCC(=O)N[C@@H](Cc1ccc(O)cc1)C(=O)N[C@@H](Cc1ccccc1)C(=O)N[C@@H](CC(C)C)C(=O)N[C@@H](Cc1ccccc1)C(=O)N[C@@H](CCCNC(=N)N)C(=O)N1CCC[C@H]1C(=O)N[C@@H](CCCNC(=N)N)C(=O)N[C@@H](CC(N)=O)C(N)=O (H-FLFHYSKTQKLGKSNEELQSPSRGYFLFRPRN-NH2; N-terminus assumed)
Food Intake Inhibition [1]: −79%
remaining at 5 h [2, 3]: 77%

CC(C)C[C@H](NC(=O)[C@H](CCCCN)NC(=O)[C@H](CCC(N)=O)NC(=O)[C@@H](NC(=O)[C@H](CCCCN)NC(=O)[C@H](CO)NC(=O)[C@@H](N)Cc1ccc(O)cc1)[C@@H](C)O)C(=O)NCC(=O)N[C@@H](CCCCN)C(=O)N[C@@H](CO)C(=O)N[C@@H](CC(N)=O)C(=O)N[C@@H](CCC(=O)O)C(=O)N[C@@H](CCC(=O)O)C(=O)N[C@@H](CC(C)C)C(=O)N[C@@H](CCC(N)=O)C(=O)N[C@@H](CO)C(=O)N1CCC[C@H]1C(=O)N[C@@H](CO)C(=O)N[C@@H](CCCNC(=N)N)C(=O)NCC(=O)N[C@@H](Cc1ccc(O)cc1)C(=O)N[C@@H](Cc1ccccc1)C(=O)N[C@@H](CC(C)C)C(=O)N[C@@H](Cc1ccccc1)C(=O)N[C@@H](CCCNC(=N)N)C(=O)N1CCC[C@H]1C(=O)N[C@@H](CCCNC(=N)N)C(=O)N[C@@H](CC(N)=O)C(N)=O (H-YSKTQKLGKSNEELQSPSRGYFLFRPRN-NH2; N-terminus assumed)
Food Intake Inhibition [1]: −69%
remaining at 5 h [2, 3]: 67%

CC(C)C[C@H](NC(=O)[C@H](CCCCN)NC(=O)[C@H](CCC(N)=O)NC(=O)[C@@H](NC(=O)[C@H](CCCCN)NC(=O)[C@H](CO)NC(=O)[C@H](Cc1ccc(O)cc1)NC(=O)[C@H](Cc1c[nH]cn1)NC(=O)[C@H](Cc1ccccc1)NC(=O)[C@H](CC(C)C)NC(=O)[C@@H](N)Cc1ccccc1)[C@@H](C)O)C(=O)NCC(=O)N[C@@H](CCCCN)C(=O)N[C@@H](CO)C(=O)N[C@@H](CC(N)=O)C(=O)N[C@H](C(=O)N[C@H](C(=O)N[C@@H](CCC(=O)O)C(=O)N[C@@H](CCC(=O)O)C(=O)N[C@@H](CC(C)C)C(=O)N[C@@H](CCC(N)=O)C(=O)N[C@@H](CO)C(=O)N1CCC[C@H]1C(=O)N[C@@H](Cc1ccccc1)C(=O)N[C@@H](C)C(=O)N[C@@H](CO)C(=O)N[C@@H](CCC(N)=O)C(=O)N[C@@H](CO)C(=O)N[C@@H](CCCNC(=N)N)C(=O)NCC(=O)N[C@@H](Cc1ccccc1)C(=O)N[C@@H](Cc1ccccc1)C(=O)N[C@@H](CC(C)C)C(=O)N[C@@H](Cc1ccccc1)C(=O)N[C@@H](CCCNC(=N)N)C(=O)N1CCC[C@H]1C(=O)N[C@@H](CCCNC(=N)N)C(=O)N[C@@H](CC(N)=O)C(N)=O)C(C)C)C(C)C [(Phe31]FN38] (H-FLFHYSKTQKLGKSNVVEELQSPFASQSRGFFLFRPRN-NH2; N-terminus assumed)
Food Intake Inhibition [1]: −64%
remaining at 5 h [2, 3]: 81%

CC(C)C[C@H](NC(=O)[C@H](Cc1ccccc1)NC(=O)[C@H](Cc1ccc(O)cc1)NC(=O)CN)C(=O)N[C@@H](Cc1ccccc1)C(=O)N[C@@H](CCCNC(=N)N)C(=O)N1CCC[C@H]1C(=O)N[C@@H](CCCNC(=N)N)C(=O)N[C@@H](CC(N)=O)C(N)=O [Compound 163357, reference compound] (H-GYFLFRPRN-NH2; N-terminus assumed)
activity in food intake assays ([1]; doses up to 170 nmol/kg): inactive
FI (60′, 200) [1]: 26%

CC[C@H](C)[C@H](NC(=O)[C@@H](NC(=O)CNC(=O)CNC(=O)[C@@H]1CCCN1C(=O)[C@@H](NC(=O)[C@H](CCC(N)=O)NC(=O)[C@@H](NC(=O)[C@H](CCC(=O)O)NC(=O)[C@H](CCC(=O)O)NC(=O)[C@H](CC(=O)O)NC(=O)[C@H](CO)NC(=O)[C@H](CC(N)=O)NC(=O)[C@H](CO)NC(=O)[C@H](CCCCN)NC(=O)CNC(=O)[C@H](CC(C)C)NC(=O)[C@H](CCCCN)NC(=O)[C@H](CCC(N)=O)NC(=O)[C@@H](NC(=O)[C@H](CCCCN)NC(=O)[C@H](CO)NC(=O)[C@H](Cc1ccc(O)cc1)NC(=O)[C@H](Cc1c[nH]cn1)NC(=O)[C@H](Cc1ccccc1)NC(=O)[C@H](CC(C)C)NC(=O)[C@@H](N)Cc1ccccc1)[C@@H](C)O)C(C)C)C(C)C)C(C)C)C(=O)N[C@@H](CO)C(=O)N[C@@H](CC(N)=O)C(=O)NCC(N)=O [Compound 165061] (H-FLFHYSKTQKLGKSNSDEEVQVPGGVISNG-NH2; N-terminus assumed)
FI (60′, 200) [1]: 0%
remaining at 5 h [2, 4]: 57%

CC(C)C[C@H](NC(=O)[C@H](CCCCN)NC(=O)[C@H](CCC(N)=O)NC(=O)[C@@H](NC(=O)[C@H](CCCCN)NC(=O)[C@H](CO)NC(=O)[C@H](Cc1ccc(O)cc1)NC(=O)[C@H](Cc1c[nH]cn1)NC(=O)[C@H](Cc1ccccc1)NC(=O)[C@H](CC(C)C)NC(=O)[C@@H](N)Cc1ccccc1)[C@@H](C)O)C(=O)NCC(=O)N[C@@H](CCCCN)C(=O)N[C@@H](CO)C(=O)N[C@@H](CC(N)=O)C(=O)N[C@H](C(=O)N[C@H](C(=O)N[C@@H](CCC(=O)O)C(=O)N[C@@H](CCC(=O)O)C(=O)N[C@@H](CC(C)C)C(=O)N[C@@H](CCC(N)=O)C(=O)N[C@@H](CO)C(=O)N1CCC[C@H]1C(=O)N[C@@H](Cc1ccccc1)C(=O)N[C@@H](C)C(=O)N[C@@H](CO)C(=O)N[C@@H](CCC(N)=O)C(=O)N[C@@H](CO)C(=O)N[C@@H](CCCNC(=N)N)C(=O)NCC(N)=O)C(C)C)C(C)C [Compound 165062] (H-FLFHYSKTQKLGKSNVVEELQSPFASQSRG-NH2; N-terminus assumed)
FI (60′, 200) [1]: 0%
remaining at 5 h [2, 4]: 40%

CC(C)C[C@H](NC(=O)[C@H](Cc1ccccc1)NC(=O)[C@H](Cc1ccc(O)cc1)NC(=O)CNC(=O)[C@H](CO)NC(=O)[C@H](Cc1ccc(O)cc1)NC(=O)[C@H](Cc1c[nH]cn1)NC(=O)[C@H](Cc1ccccc1)NC(=O)[C@H](CC(C)C)NC(=O)[C@@H](N)Cc1ccccc1)C(=O)N[C@@H](Cc1ccccc1)C(=O)N[C@@H](CCCNC(=N)N)C(=O)N1CCC[C@H]1C(=O)N[C@@H](CCCNC(=N)N)C(=O)N[C@@H](CC(N)=O)C(N)=O [Des-(Lys7-Gly30)FN38 or FN15] (H-FLFHYSGYFLFRPRN-NH2; N-terminus and C-terminus assumed)
remaining at 5 h [2, 3]: 49%

CC(C)C[C@H](NC(=O)[C@H](CCCCN)NC(=O)[C@H](CCC(N)=O)NC(=O)[C@@H](NC(=O)[C@H](CCCCN)NC(=O)[C@H](CO)NC(=O)[C@H](Cc1ccc(O)cc1)NC(=O)[C@H](Cc1c[nH]cn1)NC(=O)[C@H](Cc1ccccc1)NC(=O)[C@H](CC(C)C)NC(=O)[C@@H](N)Cc1ccccc1)[C@@H](C)O)C(=O)NCC(=O)N[C@@H](CCCCN)C(=O)N[C@@H](CO)C(=O)N[C@@H](CC(N)=O)C(=O)N[C@H](C(=O)N[C@H](C(=O)N[C@@H](CCC(=O)O)C(=O)N[C@@H](CCC(=O)O)C(=O)N[C@@H](CC(C)C)C(=O)N[C@@H](CCC(N)=O)C(=O)N[C@@H](CO)C(=O)N1CCC[C@H]1C(=O)N[C@@H](Cc1ccccc1)C(=O)N[C@@H](C)C(=O)N[C@@H](CO)C(=O)N[C@@H](CCC(N)=O)C(=O)N[C@@H](CO)C(=O)N[C@@H](CCCNC(=N)N)C(=O)NCC(=O)N[C@@H](Cc1ccc(O)cc1)C(=O)N[C@@H](Cc1ccccc1)C(=O)N[C@H](C(=O)N[C@@H](Cc1ccccc1)C(=O)N[C@@H](CCCNC(=N)N)C(=O)N1CCC[C@H]1C(=O)N[C@@H](CCCNC(=N)N)C(=O)N[C@@H](CC(N)=O)C(N)=O)C(C)C)C(C)C)C(C)C [[Val33]FN38] (H-FLFHYSKTQKLGKSNVVEELQSPFASQSRGYFVFRPRN-NH2; N-terminus and C-terminus assumed)
remaining at 5 h [2, 3]: 82%
